Patent publication US20170231966A1, “INHIBITION OF IL-2 PRODUCTION” (AYUMI PHARMACEUTICAL CORPORATION, priority 2013, published 2017)
Counter-ions that a name gives are not always drawn.

Tested on: transcriptional activation of IL-2
Test: IL-2 transcriptional activation Luciferase Assay (IL-2 Gene Promoter Reporter Vector) in A23187-stimulated Jurkat cells
Format: cell-based, human
Details: for Action on A23187-accelerated transcriptional activation of IL-2 (in words) / Inhibition ratio (transcriptional activation of IL-2), Table 2 / Inhibiting ratio of IL-2 transcriptional activation: A23187-stimulated Jurkat cells; for Luc activity value, No stimulation / Luc activity value, Stimulated by A23187: Jurkat cells, 24 hours, average ± standard deviation, n=3; for Luc activity value, No stimulation: no A23187, DMSO = 1; for Luc activity value, Stimulated by A23187: A23187 0.3 μM, unstimulated DMSO = 1

Compound: COCCN(CCCOc1ccc(OC)cc1C1Sc2cc(Cl)ccc2N1C(C)=O)C(C)C [Compound 5, (+)-3-acetyl-6-chloro-2-[2-(3-(N-isopropyl-N-(2-methoxyethyl)amino)propoxy)-5-methoxyphenyl]benzothiazoline (−)-O,O′-diacetyl-L-tartaric acid salt]
- Action on A23187-accelerated transcriptional activation of IL-2 (in words): inhibited transcriptional activation of IL-2
- Inhibition ratio (transcriptional activation of IL-2), Table 2 (compound 10 μM): 72%

Compound: CCOCCN(CCCOc1ccc(OC)cc1C1Sc2cc(Cl)ccc2N1C(C)=O)C(C)C.Cl (racemic) [Compound 3, (±)-3-acetyl-6-chloro-2-[2-(3-(N-(2-ethoxyethyl)-N-isopropylamino)propoxy)-5-methoxyphenyl]benzothiazoline hydrochloride]
- Action on A23187-accelerated transcriptional activation of IL-2 (in words): inhibited transcriptional activation of IL-2
- Inhibition ratio (transcriptional activation of IL-2), Table 2 (compound 10 μM): 77%

Compound: COc1ccc(OCCCN(CCO)C(C)C)c(C2Sc3cc(Cl)ccc3N2C(C)=O)c1.Cl (single isomer, unassigned; (+)) [Compound 4, (+)-3-acetyl-6-chloro-2-[2-(3-(N-(2-hydroxyethyl)-N-isopropylamino)propoxy)-5-methoxyphenyl]benzothiazoline hydrochloride]
- Action on A23187-accelerated transcriptional activation of IL-2 (in words): inhibited transcriptional activation of IL-2
- Inhibition ratio (transcriptional activation of IL-2), Table 2 (compound 10 μM): 38%

Compound: CN(C(=O)C(c1ccccc1)c1ccccc1)[C@H](CN1CC[C@H](O)C1)c1ccccc1 [Asimadoline, asimadoline, reference compound]
- Inhibition ratio (transcriptional activation of IL-2), Table 2 (compound 10 μM): 19%

Compound: CCOCCN(CCCOc1ccc(OC)cc1C1Sc2cc(Cl)ccc2N1C(C)=O)C(C)C (single isomer, unassigned; (+)) [Compound 2, (+)-3-acetyl-6-chloro-2-[2-(3-(N-(2-ethoxyethyl)-N-isopropylamino)propoxy)-5-methoxyphenyl]benzothiazoline (+O,O′-diacetyl-L-tartaric acid salt]
- Action on A23187-accelerated transcriptional activation of IL-2 (in words): statistically significant inhibiting action
- Luc activity value, No stimulation (compound 0.3 μM): 0.8842 ± 0.1143
- Luc activity value, Stimulated by A23187 (compound 0.3 μM): 81.9510 ± 30.4537
- Luc activity value, No stimulation (compound 1 μM): 0.9410 ± 0.0598
- Luc activity value, Stimulated by A23187 (compound 1 μM): 65.0761 ± 13.2402
- Luc activity value, No stimulation (compound 10 μM): 0.9469 ± 0.0928
- Luc activity value, Stimulated by A23187 (compound 10 μM): 27.5064 ± 29.2861
- Inhibiting ratio of IL-2 transcriptional activation (compound 0.3 μM): 12%
- Inhibiting ratio of IL-2 transcriptional activation (compound 1 μM): 30%
- Inhibiting ratio of IL-2 transcriptional activation (compound 10 μM): 70%
